Results on nine compounds are retold here after ChEMBL document CHEMBL4311957, “Recent advances in natural antifungal flavonoids and their derivatives” (Bioorg Med Chem Lett, 2019).

≈ marks a conversion by molar mass, not a printed value.

The test system of test [1] is Cryptococcus neoformans. Description: Antifungal activity against Cryptococcus neoformans. The format is functional.
Test [2] deals with Aspergillus fumigatus. The test is described as follows: Antifungal activity against Aspergillus fumigatus. The format is functional.
The test system of test [3] is Candida albicans. The test is described as follows: Antifungal activity against Candida albicans. It is filed as functional, organism-based.
Test [4] deals with Trichophyton rubrum. Description: Antifungal activity against Trichophyton rubrum. It is filed as functional.
Test [5] concerns Candida albicans. The test is described as follows: Antifungal activity against Candida albicans 498 by microdilution method. The format is functional.
Test [6] concerns Candida albicans. Description: Antifungal activity against Candida albicans ATCC 10231 by microdilution method. It is filed as functional. Background: Dilution methods test growth across graded concentrations, often in twofold steps.
In test [7] the test system is Candida parapsilosis. Description: Antifungal activity against Candida parapsilosis 96 by microdilution method. It is filed as functional. The following applies: Lodderomyces parapsilosis.
Test [8] concerns Candida albicans. The test is described as follows: Antifungal activity against Candida albicans 53 by microdilution method. The format is functional.
Test [9] concerns Candida albicans. The test is described as follows: Antifungal activity against Candida albicans 501 by microdilution method. It is filed as functional.
Test [10] relates to Candida tropicalis. Description: Antifungal activity against Candida tropicalis 166 by microdilution method. It is filed as functional.
The subject of test [11] is Nakaseomyces glabratus. The test is described as follows: Antifungal activity against Candida glabrata 510 by microdilution method. The format is functional.
For test [12], the system named is Nakaseomyces glabratus. Description: Antifungal activity against Candida glabrata 531 by microdilution method. It is filed as functional.
For test [13], the system named is Nakaseomyces glabratus. The test is described as follows: Antifungal activity against Candida glabrata 482 by microdilution method. It is filed as functional.
Test [14] concerns Nakaseomyces glabratus. Description: Antifungal activity against Candida glabrata 493 by microdilution method. It is filed as functional.
For test [15], the system named is Nakaseomyces glabratus. Description: Antifungal activity against Candida glabrata 507 by microdilution method. The format is functional.
In test [16] the test system is Nakaseomyces glabratus. The test is described as follows: Antifungal activity against Candida glabrata 587 by microdilution method. It is filed as functional.
Test [17] deals with Pichia kudriavzevii. The test is described as follows: Antifungal activity against Candida krusei 168 by microdilution method. The format is functional.
For test [18], the system named is Cryptococcus gattii. Description: Antifungal activity against Cryptococcus gattii after 72 hrs. The format is functional, Cryptococcus gattii VGI.
The subject of test [19] is Cryptococcus neoformans. The test is described as follows: Antifungal activity against Cryptococcus neoformans after 72 hrs. The format is functional.
In test [20] the test system is Trichophyton rubrum. The test is described as follows: Antifungal activity against Trichophyton rubrum after 5 days. The format is functional. The conditions noted are these: 120 h.

A word on the MIC: it is the lowest concentration found to suppress growth. In the case of `Cc1c(O)c2c(c(C(=O)/C=C/c3ccccc3)c1O)OC(C)(C)C=C2`, the MIC was 4 to 8 µg/mL (≈ 11.9 to 23.8 µM) in [1] and 16 µg/mL (≈ 47.6 µM) in [2].
The IC50 is the concentration that gives 50% inhibition. In [3], `C=CC(C)(C)c1cc([C@@H]2CC(=O)c3c(O)cc(O)c(CC=C(C)C)c3O2)c(O)cc1O` yielded a half-inhibitory concentration (IC50) of 121 µM and an MIC of 121 µg/mL (≈ 285 µM).
By MIC50 is commonly meant the lowest concentration that inhibits either 50% of growth or 50% of the strains tested, depending on the study. With `CC(=O)c1c(O)c(C)c(O)c(Cc2c(O)c(C(=O)/C=C/c3ccc(O)cc3)c3c(c2O)[C@@H]2Oc4c(Cc5c(O)c(O)c(O)c(C(C)=O)c5O)c(O)c(C(=O)/C=C/c5ccc(O)cc5)c5c4[C@H](CC(C)(C)O5)[C@H]2C(C)(C)O3)c1O`, the MIC50 in test [1] was 4 to 8 µg/mL (≈ 3.75 to 7.5 µM); in test [2], 16 µg/mL (≈ 15 µM).
`C=C(C)CC(O)c1c(O)ccc(C(=O)/C=C/c2ccc(O)cc2)c1O` (stereo unspecified): the MIC50 turned out to be 15 µg/mL (≈ 44.1 µM) in test [3] and 7 µg/mL (≈ 20.6 µM) in test [1].
The compound `Nc1ccccc1C(=O)/C=C/c1ccc([N+](=O)[O-])cc1` gave a minimum inhibitory concentration (MIC) in test [4] of 0.5 µg/mL (≈ 1.86 µM).
Still for that read-out and setting: the result for `Nc1ccccc1C(=O)/C=C/c1cccc(F)c1` reads 0.5 µg/mL (≈ 2.07 µM).
For `O=C(/C=C/c1ccc(Cl)cc1Cl)c1ccc(/N=N/c2c(O)cccc2O)cc1`, the MIC in test [3] came out at 15 µg/mL (≈ 36.3 µM); in test [2], 31.2 µg/mL (≈ 75.6 µM).
As for `C[C@@H]1O[C@@H](Oc2c(-c3cc(O)c(O)c(O)c3)oc3cc(O)cc(O)c3c2=O)[C@H](O)[C@H](O)[C@H]1O`, the MIC in test [5], in [6], in test [7], in [8], in [9] and in [10] was above 83 µg/mL throughout. Also, the MIC in test [11], in test [12], in [13], in test [14], in test [15] and in test [16] was 3.9 to 7.8 µg/mL (≈ 8.4 to 16.8 µM) each time. This compound showed an MIC in [17] above 83 µg/mL.
Turning to `O=c1c(O)c(-c2ccc(O)c(O)c2)oc2cc(O)ccc12` [FISETIN], the minimum inhibitory concentration (MIC) is above 83 µg/mL in test [5]; above 83 µg/mL in test [6]; above 83 µg/mL in test [7]; above 83 µg/mL in test [8]; 128 µg/mL (≈ 447 µM) in test [18]; above 83 µg/mL in [9]. Also, the MIC is 128 µg/mL (≈ 447 µM) in test [19]; above 83 µg/mL in [10]; 7.8 to 15.6 µg/mL (≈ 27.2 to 54.5 µM) in test [11]; 7.8 to 15.6 µg/mL (≈ 27.2 to 54.5 µM) in test [12]; 7.8 to 15.6 µg/mL (≈ 27.2 to 54.5 µM) in [13]; 64 µg/mL (≈ 224 µM) in [20]. Further, the MIC in [14] is 7.8 to 15.6 µg/mL (≈ 27.2 to 54.5 µM); in test [15], 7.8 to 15.6 µg/mL (≈ 27.2 to 54.5 µM); in [16], 7.8 to 15.6 µg/mL (≈ 27.2 to 54.5 µM); in [17], above 83 µg/mL.
